Data from ChEMBL document CHEMBL5725519, “Substituted benzamides and methods of use thereof” (2017).

How the values were obtained:
[1] = target: Sodium channel protein type 9 subunit alpha (Homo sapiens, UniProt Q15858); assay: (§1) Control sodium currents were measured in 0.5% DMSO.; format: cell-based
[2] = as §1; format: cell-based

Chain of Sodium channel protein type 9 subunit alpha (Q15858 whole entry): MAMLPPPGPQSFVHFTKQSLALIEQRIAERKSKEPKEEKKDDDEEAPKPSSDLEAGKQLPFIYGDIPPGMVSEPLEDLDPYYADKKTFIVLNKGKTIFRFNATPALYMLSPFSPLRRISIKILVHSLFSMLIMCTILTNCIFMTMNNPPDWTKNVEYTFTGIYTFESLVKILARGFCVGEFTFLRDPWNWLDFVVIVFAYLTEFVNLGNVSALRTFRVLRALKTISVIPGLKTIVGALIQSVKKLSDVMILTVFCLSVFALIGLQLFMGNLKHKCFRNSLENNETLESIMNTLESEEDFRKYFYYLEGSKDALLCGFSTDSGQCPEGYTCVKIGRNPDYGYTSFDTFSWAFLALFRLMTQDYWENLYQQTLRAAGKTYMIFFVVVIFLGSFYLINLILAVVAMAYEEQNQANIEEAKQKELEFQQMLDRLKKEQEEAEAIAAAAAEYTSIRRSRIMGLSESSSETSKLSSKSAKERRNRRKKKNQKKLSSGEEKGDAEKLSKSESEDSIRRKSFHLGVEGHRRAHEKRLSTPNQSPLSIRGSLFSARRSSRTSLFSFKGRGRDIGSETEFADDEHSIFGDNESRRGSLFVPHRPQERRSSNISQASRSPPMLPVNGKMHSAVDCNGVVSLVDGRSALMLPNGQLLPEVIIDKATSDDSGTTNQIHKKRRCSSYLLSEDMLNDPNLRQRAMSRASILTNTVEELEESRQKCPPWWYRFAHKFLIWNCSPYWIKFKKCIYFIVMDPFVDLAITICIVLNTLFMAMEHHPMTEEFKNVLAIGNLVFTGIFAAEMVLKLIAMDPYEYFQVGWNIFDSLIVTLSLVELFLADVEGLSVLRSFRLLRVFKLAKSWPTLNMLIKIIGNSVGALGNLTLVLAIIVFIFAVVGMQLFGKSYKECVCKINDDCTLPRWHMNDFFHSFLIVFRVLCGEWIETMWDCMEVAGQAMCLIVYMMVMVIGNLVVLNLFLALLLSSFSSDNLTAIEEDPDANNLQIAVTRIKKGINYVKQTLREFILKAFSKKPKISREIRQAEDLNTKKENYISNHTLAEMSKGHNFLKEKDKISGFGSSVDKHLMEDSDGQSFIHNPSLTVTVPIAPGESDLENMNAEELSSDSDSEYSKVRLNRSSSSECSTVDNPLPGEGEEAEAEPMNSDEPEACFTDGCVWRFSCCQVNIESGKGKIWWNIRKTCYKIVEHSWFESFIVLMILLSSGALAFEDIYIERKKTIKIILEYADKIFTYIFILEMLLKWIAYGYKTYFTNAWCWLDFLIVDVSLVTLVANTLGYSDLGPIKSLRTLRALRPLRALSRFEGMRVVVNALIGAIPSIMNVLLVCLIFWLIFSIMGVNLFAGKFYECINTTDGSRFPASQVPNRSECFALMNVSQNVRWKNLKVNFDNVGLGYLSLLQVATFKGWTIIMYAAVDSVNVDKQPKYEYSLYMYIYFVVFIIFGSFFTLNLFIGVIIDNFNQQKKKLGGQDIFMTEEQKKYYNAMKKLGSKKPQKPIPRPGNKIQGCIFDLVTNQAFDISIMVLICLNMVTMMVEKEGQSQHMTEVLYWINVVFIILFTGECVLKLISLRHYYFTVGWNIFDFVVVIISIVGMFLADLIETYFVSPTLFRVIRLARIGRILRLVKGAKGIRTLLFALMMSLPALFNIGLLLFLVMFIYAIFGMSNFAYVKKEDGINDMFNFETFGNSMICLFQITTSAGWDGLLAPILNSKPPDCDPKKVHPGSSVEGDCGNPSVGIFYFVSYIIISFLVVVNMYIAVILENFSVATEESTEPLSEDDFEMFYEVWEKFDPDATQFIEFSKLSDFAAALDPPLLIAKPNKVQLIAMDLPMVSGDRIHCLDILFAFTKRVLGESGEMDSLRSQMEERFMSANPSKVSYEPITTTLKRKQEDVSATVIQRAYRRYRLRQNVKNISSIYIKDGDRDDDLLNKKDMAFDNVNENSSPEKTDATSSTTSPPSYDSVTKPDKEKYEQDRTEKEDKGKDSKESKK

Row | IC50 [2] [nM] | SMILES | IC50 [1] [nM]
1 |  | O=C(NS(=O)(=O)N1CCC1)c1cc(C2CC2)c(OCC2CC3CCC(C2)N3C(c2ccccc2)c2ccccc2)cc1F (configuration not stated) | 5.4
2 | 169 | CS(=O)(=O)NC(=O)c1cc(C2CC2)c(OCC2CCN(Cc3ccc(Cl)c(C(F)(F)F)c3)CC2)cc1F | 
